The numbers were not newly measured in patent US6514710B1, “Method of using cyclic peptides to inhibit binding to urokinase-type plasminogen activator receptor” (Angstrom Pharmaceuticals, Inc., priority 1996, dated 2003), which cites them from elsewhere.

Read-outs that look alike come from different tables or passages of the source.

What is called IC50 is the concentration that gives 50% inhibition.

Series [1] has as its target T1, uPAR (Homo sapiens, UniProt Q03405). As to conditions: read-out: IC50, prevention of uPA binding to uPAR.
The target of series [2] is T1, uPAR. As to conditions: read-out: IC50, inhibition of the binding of uPA to uPAR.
Series [3] deals with murine Lewis Lung carcinoma. The settings on record: murine Lewis Lung carcinoma in mice; peptides derived from the mouse sequence.

T1 sequence (Q03405 23-305): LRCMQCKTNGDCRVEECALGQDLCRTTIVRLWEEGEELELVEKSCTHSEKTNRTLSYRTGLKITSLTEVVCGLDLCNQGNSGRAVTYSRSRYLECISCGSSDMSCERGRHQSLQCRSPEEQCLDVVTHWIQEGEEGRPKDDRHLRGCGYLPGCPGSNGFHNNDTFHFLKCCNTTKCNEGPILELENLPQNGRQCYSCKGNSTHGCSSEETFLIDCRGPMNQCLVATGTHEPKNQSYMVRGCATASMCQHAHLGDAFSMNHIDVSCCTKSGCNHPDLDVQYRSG

Regarding “[Ala^19]uPA-(12-32) [[Ala^19]uPA-(12-32) oxidized cyclic form]”, the IC50 in series [1] is 40 nM. Consider “linear peptide 20-30: linear peptide of uPA residues 20-30 (VSNKYFSNIHW; UniProt P00749 40-50, looked up, fragment)”, for which the IC50 in series [2] was 1000 nM. As for “peptide (17-34) derived from the mouse sequence: corresponding longer peptide (17-34) derived from the mouse uPA sequence (GGVCVSYKYFSRIRRCSC; UniProt P06869 37-54, looked up, fragment)”, in series [3], the “inhibition of spontaneous metastasis” value is reported as “inhibited spontaneous metastasis”. Take “peptide 17-34: longer peptide of uPA residues 17-34 (GTCVSNKYFSNIHWCNCP; UniProt P00749 37-54, looked up, fragment)”: in series [2], the IC50 was 100 nM. For “[Ala^19]uPA-(12-32) [[Ala^19]uPA-(12-32) open chain form]”, the IC50 in series [1] was 100 nM.

“corresponding linear shorter peptide (20-30): linear shorter peptide (20-30) corresponding to the mouse sequence (CVSYKYFSRIR; UniProt P06869 40-50, looked up, fragment)”: the “inhibition of spontaneous metastasis” value in series [3] was “had no effect”.
